Measurements: US20230066011A1, “PYRROLOPYRIMIDINE DERIVATIVE, AND PHARMACEUTICAL COMPOSITION FOR PREVENTING OR TREATING PROTEIN KINASE-RELATED DISEASE COMPRISING SAME AS ACTIVE INGREDIENT” (VORONOI CO., LTD., priority 2019, published 2023)

What was measured:
human GST-DYRK1A = molecular target: T1, human GST-DYRK1A (Homo sapiens, UniProt Q13627); assay: GST-DYRK1A enzyme inhibition, ADP-Glo kinase assay; assay type: biochemical; settings: ATP 10 μM, GST-DYRK1A full length, read-out: DYRK1 IC50
T1 construct: purified human GST-DYRK1A (full length, Thermo Scientifics) enzyme; purchased Thermo Scientifics
Protocol: (§1) To evaluate an inhibitory activity of the compound according to the present invention against LRRK2, LRRK2 (G2019S), DYRK1, CLK1, and TTK kinases, experiments were performed as follows.
(§2) Each of the Example compounds was reacted with a purified human GST-DYRK1A (full length, Thermo Scientifics) enzyme to evaluate an ability to inhibit an enzyme using a method as described below. A composition of 40 mM Tris-HCl (pH 7.4), 20 mM MgCl2, 0.5 mg/mL BSA, and 50 μM DTT was used as a reaction buffer, and all reactions of test substances were performed in the reaction buffer. In the test, purified ATP (10 μM) and a specific substrate solution were reacted with a human GST-DYRK1A (full length, 10 ng) enzyme at 25° C. for an hour, and the enzyme activities were then determined using an in vitro ADP-Glo™ kinase assay (Promega). An enzyme-activity reaction solution, an ADP-Glo reaction solution, and an enzyme-ability detection solution were reacted at a ratio of 2:2:1 to measure a degree of inhibition of the enzyme activity with luminescence. The degree of inhibition of the enzyme activity according to the treatment concentration of each of the compounds was calculated based on the fluorescence of the enzyme activity of the solvent control which was not treated with the compound. In this case, the concentration of each of the compounds inhibiting 50% of the enzyme activity was determined to be an IC50 (nM) value, and the IC50 (nM) value of each of the compounds was determined from 3 sets of data, and calculated using Prism (Version 5.01; GraphPad) software.

human GST-CLK1 = molecular target: T2, human GST-CLK1 (Homo sapiens, UniProt P49759); assay: GST-CLK1 enzyme inhibition, ADP-Glo kinase assay; assay type: biochemical; settings: ATP 10 μM, GST-CLK1 129-end
T2 construct: purified human GST-CLK1 (129-end, SignalChem) enzyme; purchased SignalChem
Protocol: as §1
as §2, with “GST-CLK1 (129-end, SignalChem)” for “GST-DYRK1A (full length, Thermo Scientifics)”, “GST-CLK1 (129-end, 3” for “GST-DYRK1A (full length, 10”, “value. The” for “value, and the”

T2 sequence (P49759 129-484 limits assumed): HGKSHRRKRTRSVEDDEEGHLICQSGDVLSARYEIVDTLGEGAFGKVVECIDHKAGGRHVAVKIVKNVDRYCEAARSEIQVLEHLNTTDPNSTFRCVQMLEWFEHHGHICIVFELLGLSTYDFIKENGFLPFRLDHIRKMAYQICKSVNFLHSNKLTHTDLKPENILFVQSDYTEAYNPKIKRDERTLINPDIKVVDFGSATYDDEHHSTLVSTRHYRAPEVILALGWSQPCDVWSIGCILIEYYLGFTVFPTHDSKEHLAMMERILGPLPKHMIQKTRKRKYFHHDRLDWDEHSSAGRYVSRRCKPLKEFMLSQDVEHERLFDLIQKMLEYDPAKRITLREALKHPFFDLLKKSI

CCNc1nc(Nc2ccc(C(=O)N3CCN(C4COC4)CC3)c3c2OCCO3)nc2[nH]cc(C#N)c12 [Example 265, 4-(ethylamino)-2-((8-(4-(oxetan-3-yl)piperazine-1-carbonyl)-2,3-dihydrobenzo[b][1,4]dioxin-5-yl)amino)-7H-pyrrolo[2,3-d]pyrimidine-5-carbonitrile]
IC50 (human GST-DYRK1A): 0.101 to 0.3 µM | IC50 (human GST-CLK1): 0.101 to 0.3 µM

CC[C@@H](C)Nc1nc(Nc2ccc(P(C)(C)=O)cc2OC)nc2[nH]cc(C#N)c12 [Example 266, (R)-4-(sec-butylamino)-2-((4-(dimethylphosphoryl)-2-methoxyphenyl)amino)-7H-pyrrolo[2,3-d]pyrimidine-5-carbonitrile]
IC50 (human GST-DYRK1A): 0.101 to 0.3 µM | IC50 (human GST-CLK1): < 0.1 µM

CC[C@H](C)Nc1nc(Nc2ccc(P(C)(C)=O)cc2OC)nc2[nH]cc(C#N)c12 [Example 267, (S)-4-(sec-butylamino)-2-((4-(dimethylphosphoryl)-2-methoxyphenyl)amino)-7H-pyrrolo[2,3-d]pyrimidine-5-carbonitrile]
IC50 (human GST-DYRK1A): 0.301 to 1 µM | IC50 (human GST-CLK1): 0.301 to 1 µM

COc1cc(P(C)(C)=O)ccc1Nc1nc(NC2CCC2)c2c(C#N)c[nH]c2n1 [Example 268, 4-(cyclobutylamino)-2-((4-(dimethylphosphoryl)-2-methoxyphenyl)amino)-7H-pyrrolo[2,3-d]pyrimidine-5-carbonitrile]
IC50 (human GST-DYRK1A): 0.301 to 1 µM | IC50 (human GST-CLK1): 0.101 to 0.3 µM

COc1cc(P(C)(C)=O)ccc1Nc1nc(NC2CCCC2)c2c(C#N)c[nH]c2n1 [Example 269, 4-(cyclopentylamino)-2-((4-(dimethylphosphoryl)-2-methoxyphenyl)amino)-7H-pyrrolo[2,3-d]pyrimidine-5-carbonitrile]
IC50 (human GST-DYRK1A): 0.301 to 1 µM | IC50 (human GST-CLK1): 0.101 to 0.3 µM

COc1cc(P(C)(C)=O)ccc1Nc1nc(N[C@@H]2CCOC2)c2c(C#N)c[nH]c2n1 [Example 270, (R)-2-((4-(dimethylphosphoryl)-2-methoxyphenyl)amino)-4-((tetrahydrofuran-3-yl)amino)-7H-pyrrolo[2,3-d]pyrimidine-5-carbonitrile]
IC50 (human GST-DYRK1A): 0.301 to 1 µM | IC50 (human GST-CLK1): 0.301 to 1 µM

COc1cc(P(C)(C)=O)ccc1Nc1nc(N[C@H]2CCOC2)c2c(C#N)c[nH]c2n1 [Example 271, (S)-2-((4-(dimethylphosphoryl)-2-methoxyphenyl)amino)-4-((tetrahydrofuran-3-yl)amino)-7H-pyrrolo[2,3-d]pyrimidine-5-carbonitrile]
IC50 (human GST-DYRK1A): 0.301 to 1 µM | IC50 (human GST-CLK1): 0.101 to 0.3 µM

COc1cc(P(C)(C)=O)ccc1Nc1nc(NC2CCOCC2)c2c(C#N)c[nH]c2n1 [Example 272, 2-((4-(dimethylphosphoryl)-2-methoxyphenyl)amino)-4-((tetrahydro-2H-pyran-4-yl)amino)-7H-pyrrolo[2,3-d]pyrimidine-5-carbonitrile]
IC50 (human GST-DYRK1A): 0.301 to 1 µM | IC50 (human GST-CLK1): 0.301 to 1 µM

COc1cc(P(C)(C)=O)ccc1Nc1nc(NCC2CC2)c2c(C#N)c[nH]c2n1 [Example 273, 4-((cyclopropylmethyl)amino)-2-((4-(dimethylphosphoryl)-2-methoxyphenyl)amino)-7H-pyrrolo[2,3-d]pyrimidine-5-carbonitrile]
IC50 (human GST-DYRK1A): 0.301 to 1 µM | IC50 (human GST-CLK1): 0.101 to 0.3 µM

COc1cc(P(C)(C)=O)ccc1Nc1nc(NCC2CCCC2)c2c(C#N)c[nH]c2n1 [Example 274, 4-((cyclopentylmethyl)amino)-2-((4-(dimethylphosphoryl)-2-methoxyphenyl)amino)-7H-pyrrolo[2,3-d]pyrimidine-5-carbonitrile]
IC50 (human GST-DYRK1A): 0.301 to 1 µM | IC50 (human GST-CLK1): 0.301 to 1 µM

CCCCNc1nc(Nc2ccc(P(C)(C)=O)cc2OC)nc2[nH]cc(C#N)c12 [Example 275, 4-(butylamino)-2-((4-(dimethylphosphoryl)-2-methoxyphenyl)amino)-7H-pyrrolo[2,3-d]pyrimidine-5-carbonitrile]
IC50 (human GST-DYRK1A): 0.301 to 1 µM | IC50 (human GST-CLK1): 0.101 to 0.3 µM

COc1cc(P(C)(C)=O)ccc1Nc1nc(NC2COC2)c2c(C#N)c[nH]c2n1 [Example 276, 2-((4-(dimethylphosphoryl)-2-methoxyphenyl)amino)-4-(oxetan-3-ylamino)-7H-pyrrolo[2,3-d]pyrimidine-5-carbonitrile]
IC50 (human GST-DYRK1A): 0.301 to 1 µM | IC50 (human GST-CLK1): 0.301 to 1 µM

CNc1nc(Nc2ccc(P3(=O)CCN(C4CC4)CC3)cc2OC)nc2[nH]cc(C#N)c12 [Example 279, 2-((4-(1-cyclopropyl-4-oxido-1,4-azaphosphinan-4-yl)-2-methoxyphenyl)amino)-4-(methylamino)-7H-pyrrolo[2,3-d]pyrimidine-5-carbonitrile]
IC50 (human GST-DYRK1A): 0.301 to 1 µM | IC50 (human GST-CLK1): 0.301 to 1 µM

CNc1nc(Nc2ccc(C(=O)N3CCN(C4COC4)CC3)c3c2OCCO3)nc2[nH]cc(C#N)c12 [Example 280, 4-(methylamino)-2-((8-(4-(oxetan-3-yl)piperazine-1-carbonyl)-2,3-dihydrobenzo[b][1,4]dioxin-5-yl)amino)-7H-pyrrolo[2,3-d]pyrimidine-5-carbonitrile]
IC50 (human GST-DYRK1A): 0.101 to 0.3 µM | IC50 (human GST-CLK1): < 0.1 µM

CCNc1nc(Nc2ccc(C(=O)N3CCN(C4COC4)CC3)c3c2OCCO3)nc2[nH]cc(C#N)c12 [Example 281, 4-(ethylamino)-2-((8-(4-(oxetan-3-yl)piperazine-1-carobnyl)-2,3-dihydrobenzo[b][1,4]dioxin-5-yl)amino)-7H-pyrrolo[2,3-d]pyrimidine-5-carbonitrile]
IC50 (human GST-DYRK1A): 0.101 to 0.3 µM | IC50 (human GST-CLK1): < 0.1 µM

CCCNc1nc(Nc2ccc(P3(=O)CCN(C4CC4)CC3)cc2OC)nc2[nH]cc(C#N)c12 [Example 282, 2-((4-(1-cyclopropyl-4-oxido-1,4-azaphosphinan-4-yl)-2-methoxyphenyl)amino)-4-(propylamino)-7H-pyrrolo[2,3-d]pyrimidine-5-carbonitrile]
IC50 (human GST-DYRK1A): 0.301 to 1 µM | IC50 (human GST-CLK1): 0.101 to 0.3 µM

CCCNc1nc(Nc2ccc(P3(=O)CCN(C4COC4)CC3)cc2OC)nc2[nH]cc(C#N)c12 [Example 283, 2-((2-methoxy-4-(1-(oxetan-3-yl)-4-oxido-1,4-azaphosphinan-4-yl)phenyl)amino)-4-(propylamino)-7H-pyrrolo[2,3-d]pyrimidine-5-carbonitrile]
IC50 (human GST-DYRK1A): 0.301 to 1 µM | IC50 (human GST-CLK1): 0.101 to 0.3 µM

CCCNc1nc(Nc2ccc(C(=O)N3CCN(C4COC4)CC3)c3c2OCCO3)nc2[nH]cc(C#N)c12 [Example 284, 2-((8-(4-(oxetan-3-yl)piperazine-1-carbonyl)-2,3-dihydrobenzo[b] [1,4]dioxin-5-yl)amino)-4-(propylamino)-7H-pyrrolo[2,3-d]pyrimidine-5-carbonitrile]
IC50 (human GST-DYRK1A): 0.301 to 1 µM | IC50 (human GST-CLK1): < 0.1 µM

COc1cc(P2(=O)CCN(C3CC3)CC2)ccc1Nc1nc(NC2CC2)c2c(C#N)c[nH]c2n1 [Example 285, 2-((4-(1-cyclopropyl-4-oxido-1,4-azaphosphinan-4-yl)-2-methoxyphenyl)a-mino)-4-(cyclo-propylamino)-7H-pyrrolo[2,3-d]pyrimidine-5-carbonitrile]
IC50 (human GST-DYRK1A): 0.301 to 1 µM | IC50 (human GST-CLK1): 0.101 to 0.3 µM

COc1cc(P2(=O)CCN(C3COC3)CC2)ccc1Nc1nc(NC2CC2)c2c(C#N)c[nH]c2n1 [Example 286, 4-(cyclo-propylamino)-2-((2-methoxy-4-(1-(oxetna-3-yl)-4-oxido-1,4-azaphosphinan-4-yl)phenyl)amino)-7H-pyrrolo[2,3-d]pyrimidine-5-carbonitrile]
IC50 (human GST-DYRK1A): 0.301 to 1 µM | IC50 (human GST-CLK1): < 0.1 µM
